From PMC5379745, “Coordinating antigen cytosolic delivery and danger signaling to program potent cross-priming by micelle-based nanovaccine” (Cell Discovery, 2017)

Tests used:
[1] = cited from earlier work
Text: Both MPLA and LPS have very low critical micelle concentration to tend to form the micelle at 10^−9 mol concentration. Only their monomers can bind to the TLR4/MD-2 heterodimers, and after binding, two TLR4/MD-2 heterodimers form the TLR4/MD-2 heterotetramers for signaling transduction. As a chaperon, LBP in serum can induce disassembly of MPLA and LPS, and then transfer them with CD14 to their receptors (Supplementary Figure S3A; [36]). […] However, as a detoxic form of LPS, the adjuvant activity is also attenuated. […] One reason of PEG-PE micelles accounting for these may be its monomerization of MPLA. MPLA, as well as LPS, has very low critical micelle concentration (~10^−9 M), thus are usually present as aggregates [[32], ...

TLR4 [2] = biological target: T1, TLR4 (Mus musculus, UniProt Q9JHF9+Q9QUK6); test: MPLA activity assay (TNF-α ELISA); assay type: cell-based, mouse (RAW264.7 cells); details: RAW264.7 cells, 2 h, mean±s.d. n=4
T1 construct: endogenous in cells; host or cells: RAW264.7 (mouse macrophage-like cell line)
T1 sequence (Q9JHF9 19-160): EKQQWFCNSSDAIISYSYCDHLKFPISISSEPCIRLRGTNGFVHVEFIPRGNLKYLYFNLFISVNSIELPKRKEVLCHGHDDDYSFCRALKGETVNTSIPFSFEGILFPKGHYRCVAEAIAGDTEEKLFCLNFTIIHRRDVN
T1 sequence (Q9QUK6 26-835): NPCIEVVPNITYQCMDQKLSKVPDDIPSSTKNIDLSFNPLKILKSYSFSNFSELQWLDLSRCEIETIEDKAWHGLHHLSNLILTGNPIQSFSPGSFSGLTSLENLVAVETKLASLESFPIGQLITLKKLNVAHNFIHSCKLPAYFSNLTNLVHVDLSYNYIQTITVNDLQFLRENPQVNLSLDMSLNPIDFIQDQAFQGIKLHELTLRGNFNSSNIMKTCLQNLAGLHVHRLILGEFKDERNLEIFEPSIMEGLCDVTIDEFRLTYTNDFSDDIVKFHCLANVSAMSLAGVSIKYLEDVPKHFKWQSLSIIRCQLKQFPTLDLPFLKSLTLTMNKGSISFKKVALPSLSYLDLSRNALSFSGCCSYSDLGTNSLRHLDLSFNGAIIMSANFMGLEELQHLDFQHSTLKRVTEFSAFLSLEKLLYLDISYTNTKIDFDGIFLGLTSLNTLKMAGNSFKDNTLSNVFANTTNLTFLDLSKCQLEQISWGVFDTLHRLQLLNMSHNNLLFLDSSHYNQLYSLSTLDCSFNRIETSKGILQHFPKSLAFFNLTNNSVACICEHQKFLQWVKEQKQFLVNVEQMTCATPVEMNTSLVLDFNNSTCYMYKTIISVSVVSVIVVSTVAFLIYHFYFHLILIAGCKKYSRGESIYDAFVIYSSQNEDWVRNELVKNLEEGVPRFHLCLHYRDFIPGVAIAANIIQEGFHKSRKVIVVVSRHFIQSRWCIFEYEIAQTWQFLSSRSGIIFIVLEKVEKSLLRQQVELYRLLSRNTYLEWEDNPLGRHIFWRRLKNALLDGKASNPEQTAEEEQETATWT
Method: (§1) 0.5 mg/ml with deionized water. Particle sizes were shown as intensity-w eight ed diameters. The values were repo rted as the mean ± standard deviation (SD) based on more than three individual measurements performed in triplicate.
(§2) […] RAW264.7 cells were seeded in 24-well plates overnight. Then, the cells were treated with 10, 100, 1000ng/ml MPLA, M-MPLA, Lipo/MPLA, PLA/MPLA, or PEG 2000 -DPG (1,2-dipalmitate-sn-gl yc e r o -3- O-[(polyethylene glycol)-2000]) micellized MPLA (DP-M-MP LA), PEG 2000 -L-DPG (1,2-dipalmitate-sn-gl yc e r o -3-(6-amido-2-aminohexanoyl ox y)-N-[(polyethylene glycol)-2000]) micellized MPLA (N-M-MPLA), respectively for 2 h prior to harvesting the supernatant. TLR4 activation was measured by the cumulative production of TNF-α using the mouse TNF-α ELISA kit (eBios cience, San Diego, CA, USA).
(§3) M-MPL A activity assay in serum f ree mediu m or under LBP-blocking condition RAW264.7 cells were seeded and cultured overnight. Then the cells were either treated (1) with s erum-free medium (S FM) or (2) with LBP-blocking pepti de. (1): The cells were washed with SFM three times before experiment, then treated with 100ng/ml MP LA, M-MP LA, or LPS in the p resen ce o r abs ence of serum respectivel y; (2):The cells were treated with or without LBPK95A (LBPK95A sequence:
(§4) added and incubated for 2h prior to harvesting the supernatant. TLR4 activation was […]

TLR4 [3] = biological target: T1, TLR4; test: M-MPLA activity assay in serum free medium or under LBP-blocking condition; assay type: cell-based, mouse (RAW264.7 cells); details: RAW264.7 cells, 2 h, serum-free medium or 100 μg/ml LBPK95A, ELISA
Method: as §1, §2, §3, §4

DC2.4 cells = test: Confocal imaging of intracellular localisation of RhB-labeled peptides; assay type: cell-based, mouse (C57BL/6); details: 20 μM RhB-labeled peptide, 37 °C, 30 min (legend; text says 2 h), LysoTracker Green or EGFP-Rab5, confocal, three independent experiments
Method: DC2.4 cells or EGFP-Rab5 expressing DC2.4 cells were seeded in 35 mm glass-bottom plates. After overnight culture, different formulations of indicated Rhodamine-labeled peptides (20 μM) were added and incubated at 37 °C for 30 min or 2 h. Then, 100 nM Lyso-Tracker Green or ER-Tracker Green (Life Technologies, Grand Island, NY, USA) was added and incubated for 5 or 20 min, respectively. The processes of PEG-PE inserting into cell membranes, peptide internalization and the co-localization of peptides with early endosome (Rab5), lysosome or ER were imaged using a confocal microscope LSM-700 (ZEISS, Germany).
TC-1, a tumor cell line transformed from C57BL/6 primar y mouse lung cells, was kindly provided b y Dr. Xuemei Xu (Institute of Basic Medical Sciences Chinese Academ y of Medical Sciences & School of Basic Medicine, Peking Union Medical College, Beijing, China). DC2.4, an immortalized DC cell line derived from C57BL/6 mice, was kindl y provided by Dr. Li Tang (Ke y Laborator y of Protein Engineering, Academ y of Military Medical Sciences, Beijing, China). RAW 264.7, a macrophage like cell line derived from BALB/c mice, was purchased from the Type Culture Collection of the Chinese Academ y of Sciences (Shanghai, China). MC38 is a murine colon adenocarcinoma cell line. MC38- OVA was sorted and subcloned after MC38 cells were stable transduced with retrovirus expressing mouse […]–O T I.
B16-F10 murine melanoma cell line was originally obtained from ATCC, catalog no.
CRL-6475. All cells were cultured in complete RPMI1640 medium according to […]
Preparation of PE G-PE micellized antigenic peptides
Briefl y, peptides (HPV16 E7 43-62 , O VA 250-264 , sCT) or Rhodamine labeled peptides (RhB-peptide) were dissolved in methanol, respectivel y. Then the three peptides were respectively mixed with corresponding amount PEG 2000 -PE or FITC labeled PEG 2000 -PE(FITC-PP) which was dissolved in chloroform in a 1/10 molar ratio of peptide/PEG-PE. Then the peptide containing micelle were prepared as described in […]

TLR4/MD-2 = biological target: T2, TLR4/MD-2 (Mus musculus, UniProt Q9JHF9+Q9QUK6); test: TLR4/MD-2 heterotetramer formation detection (MTS510 staining); assay type: cell-based, mouse (RAW264.7 cells); details: RAW264.7 cells, 100 ng/ml, 15 min, 37 °C, flow cytometry
T2 construct: endogenous in cells; host or cells: RAW264.7 (mouse macrophage-like cell line)
T2 sequence (Q9JHF9 19-160): as the sequence (Q9JHF9 19-160) above
T2 sequence (Q9QUK6 26-835): as the sequence (Q9QUK6 26-835) above
Method: measured as describ ed ab ove.
TLR4/MD-2 heterotetramer forma tion detecti on RAW264.7 cells were stimulated with 100ng/ml MPLA, M+MPLA, M -MPLA, or LPS for 15min at 37℃. Then the treated cells were put on ice and washed with PBS.
After blocking with anti- FcγR mAb (2.4G2), the cells were incubated with one of the following antibodies: MTS510 PE, Rat IgG2a K isotype control PE. Finally, the cells were anal yz ed b y flow cyt ometr y (Calibur, BD Bioscience).
Bone marrow dendritic cells (BMDC) g enera tion
BMDCs are generated as described previously 2. Briefly, bone marrow (BM) cells were collected from tibias and femurs of female C57BL/6 mice. At da y 0, 2×10^6 BM cells were cultured in 100mm plate with 10ml complete RPMI 1640 medium containing 200 U/ml rmGM-CSF (PeproTech, Rocky Hill, NJ). At day 3, another 10 ml RPMI 1640 medium containing 200U/ml rmGM-CSF were added. At day 6, the immature BMDCs were collected and read y to us e.
BMDCs or splenocytes from C57BL/6 mice were seeded in 96-well plates and cultured in the presence of 100 ng/ml different MPLA formulations (MPLA, M+MP LA, M- MPLA), or 10 μg empt y PEG -PE micelle. For RNA detection, BMDCs were collected 1h after stimulation. For protein detection, the supernatants were […]

[4] = Circular dichroism (CD) spectroscopy of secondary structure; assay type: physicochemical; details: free peptide or PEG-PE micellized peptide
[5] = In vivo imaging (IVIS) of lymphatic trafficking; set-up: species or system C57BL/6 mice; details: subcutaneous at tail base, 15 μmol FITC, 0 to 168 h
Text: C57BL/6 mice were subcutaneously injected with 15 μmol (FITC) of different FITC-labeled formulations (FITC, F-L, F-M) at tail base. The diffusion from injection sites was detected using an in vivo imaging system (IVIS) (Caliper life Sciences, Hopkinton, MA, USA). Spectrum unmixing technique was applied to reducing the effect of native tissue auto-fluorescence, separating detecting fluorescence and analyzing fluorescence diffusion. For imaging on inguinal and axillary LNs, LNs were excised and imaged at indicated time points. An image set (Ex: 500, Em: 540, f4, bin 8, 2 s) was collected. Living Image software Version 4.4 (Caliper Life Sciences, Waltham, MA, USA) was used to acquire and quantify the fluorescence imaging data sets.

TC-1 cells = test: Vaccination combined with cisplatin chemotherapy, TC-1 tumors; assay type: in vivo, C57BL/6 mice; details: cisplatin 5 mg/kg i.v. three times, vaccine s.c. three times, with high dose tumor re-challenge, n=10
Method: To detect the LN targeting deliver y of pol ypeptide antigens by micelle, C57BL/6 mice were subcutaneousl y injected with 14.6 nmol different formulations of RhB labeled E7 peptide (E7, Pal-E7 and M-E7) at tail base. The DLNs were ex cised and digested into single cell suspension at 24h post-injection, the RhB+ DCs and Macrophages cells wer e detected b y flo w c ytom etr y.
Vaccination combined with cisplatin chemotherapy
C57BL/6 mice were inoculated subcutaneousl y with 5×10^4 TC-1 tumor cells. Two weeks later when the tumor volume reached 100 mm3 (day 0), tumor -bearing mice were treated with cisplatin (5mg/kg bod y weight) intravenousl y for three times at 5 days interval. On the same day of the last chemotherap y, mice were vaccinated subcutaneousl y with micelle vaccine or normal saline (NS) for three times at 7da ys interval. Tumor growth and tumor free rate was monitored twice per week.
Vaccination co mbined w ith surgical operation
C57BL/6 mice were injected subcutaneousl y on the right flank with 5×10^4 TC-1 tumor cells. One month later when the volume of tumor reached 1000mm 3 (day 0), mice were anesthetized and full resection was executed by excising the tumor using standard blunt dissection. Sterile silk sutures were used to close wounds.
Accompanied b y wound closure, mice were vaccinated subcutaneousl y with micelle vaccine or NS for three times at 7 days interval. […]

## Monophosphoryl lipid A [MPLA]
[1]
  Critical micelle concentration: ~ 10^−9 M
  Critical micelle concentration (concentration at which micelles tend to form): 10^−9 mol
TLR4 [2]
  MPLA concentration generating a comparable level of TNF-α: 1 000 ng ml^−1
TLR4 [3]
  TNF-α secretion in serum-free medium (without LBP) or with LBP-blocking peptide: could not efficiently stimulate macrophage to secret TNF-α

## GQAEPDRAHYNIVTFCCKCD [E7, HPV16 E7_43-62 antigenic peptide, RhB-labeled for imaging]
DC2.4 cells
  Intracellular location of RhB-labeled peptide relative to lysosomes / endosomes: contained within lysosomes

## lipopolysaccharide [LPS]
[1]
  Critical micelle concentration: ~ 10^−9 M
  Critical micelle concentration (concentration at which micelles tend to form): 10^−9 mol
TLR4 [3]
  TNF-α secretion in serum-free medium (without LBP) or with LBP-blocking peptide: could not efficiently stimulate macrophage to secret TNF-α
TLR4/MD-2
  MTS510 mAb reactive surface TLR4/MD-2 complex: dramatically downregulated MTS510 mAb reactive surface TLR4/MD-2 complex

## salmon calcitonin [sCT]
[4]
  Secondary structure by CD spectroscopy: non-α-helical peptides
DC2.4 cells
  Intracellular location of RhB-labeled peptide relative to lysosomes / endosomes: contained within lysosomes

## SGLEQLESIINFEKL [OVA peptide, OVA250-264 antigenic peptide]
DC2.4 cells
  Intracellular location of RhB-labeled peptide relative to lysosomes / endosomes: largely outside lysosomes

## Fluorescein isothiocyanate [FITC]
[5]
  Diffusion from the injection site: mostly stayed and largely retained around the injection sites even 7 days post injection

## N.N.[Cl][Pt][Cl] [cisplatin]
TC-1 cells
  Mice remaining tumor-free at 3 months after treatment: none
